This note sets out measurements from US9617310B2 (priority 2013, dated 2017).

Common to all, as to format: cell-based
Experiment [1] relates to genotype 1b stable HCV replicon (Con1) in Huh-7-derived cells. Nature of the experiment: Stable subgenomic HCV replicon, genotype 1b, Renilla luciferase. Particulars: Hepatitis C virus, stable replicon genotype 1b, 72 h, read-out: EC50 1B RLUC. The method, then: Antiviral potency (EC50) was determined in both stable subgenomic HCV replicon cell lines and transient-transfected HCV replicon cells. The term half maximal effective concentration (EC50) refers to the concentration of a drug which induces a response halfway between the baseline and maximum after the exposure time specified below.
Stable subgenomic HCV replicons for genotype 1a, 1b, 2a, 3a, and 4a were established in Huh-7-derived cells as described by Lohmann et al (Lohmann V, Korner F, Koch J, et al Replication of subgenomic hepatitis C virus RNAs in a hepatoma cell line. Science 1999; 285:119-3). Each stable cell line contains a bicistronic HCV replicon that encodes a humanized Renilla luciferase (hRLuc) reporter gene fused to a selectable neomycin-resistance gene, followed by an EMCV IRES and the NS3-NS5B coding region of HCV. […] Luciferase activity was measured as a marker for intracellular HCV replication levels.
The genotype 1a stable replicon was derived from the H77 HCV strain and contained adaptive mutations P1496L and S2204I. The genotype 1b stable replicon was derived from the Con1 HCV strain and contained adaptive mutations E1202G, T1280I, and K1846T. […] The genotype 3a stable replicon was derived from the S52 HCV strain and contained adaptive mutations P1121 L, A1198T and S2210I (equivalent to S2204I in genotype 1). The genotype 4a stable replicon was derived from the ED43 HCV strain and contained adaptive mutations Q1691R and S2204I. All replicon cell lines were propagated in Huh-7-derived cells and maintained in Dulbecco's modified Eagle's Medium (DMEM) supplemented with 10% fetal bovine serum (FBS) and 0.5 mg/ml G418.
To perform EC50 assays, cells from each HCV replicon were dispensed into 384-well plates. Compounds were dissolved in DMSO at a concentration of 10 mM and diluted in DMSO using an automated pipetting instrument. Three-fold serially diluted compounds were directly added to the cells using an automated instrument. DMSO was used as a negative (solvent; no inhibition) control, and a combination of three HCV inhibitors including a protease inhibitor; an NS5A inhibitor and a nucleoside inhibitor was used at concentrations >100×EC50 as a positive control (100% inhibition). Seventy-two hours later, cells were lysed and Renilla luciferase activity were quantified as recommended by the manufacturer (Promega-Madison, Wis.). Non-linear regression was performed to calculate […], values.

Experiment [2] has as its system genotype 3a transient HCV replicon (S52) in Huh-7-derived cells. As to the kind of experiment: Transient-transfected HCV replicon, genotype 3a wild type. The settings on record: Hepatitis C virus; transient-transfected replicon genotype 3a wild type, 72 h; read-out: EC50 3A WT. For orientation: In antiviral work, replicon cells carry a viral genome segment that copies itself.

In experiment [3] the test system is genotype 1a (H77) wild-type transient HCV replicon in Huh-7-derived cells. As to the kind of experiment: Transient-transfected HCV replicon, genotype 1a wild type. Particulars: Hepatitis C virus; transient-transfected replicon genotype 1a wild type, 72 h; read-out: EC50 1A WT.
The subject of experiment [4] is NS3/4a protease inhibitor resistant variant R155K in genotype 1a transient HCV replicon. As to the kind of experiment: Transient-transfected HCV replicon, genotype 1a R155K. Particulars: Hepatitis C virus, 72 h, read-out: EC50 1A R155K.
The subject of experiment [5] is genotype 1b wild-type transient HCV replicon in Huh-7-derived cells. Nature of the experiment: Transient-transfected HCV replicon, genotype 1b wild type. Particulars: Hepatitis C virus; transient-transfected replicon genotype 1b wild type, 72 h; read-out: EC50 1B WT.
Experiment [6] deals with NS3/4a protease inhibitor resistant variant D168A in genotype 1b transient HCV replicon. As to the kind of experiment: Transient-transfected HCV replicon, genotype 1b D168A. The settings on record: Hepatitis C virus, 72 h, read-out: EC50 1B D168A.

As for `CC(C)(C)[C@@H]1NC(=O)O[C@@H]2C[C@@H]3C[C@@H]3[C@H]2CCCCCc2nc3ccc4ccccc4c3nc2OC2C[C@@H](C(=O)N[C@]3(C(=O)NS(=O)(=O)C4(C)CC4)C[C@H]3C(F)F)N(C2)C1=O` (stereo partly drawn) [Example 22, (33R,35S,91S,93R,94R,95S,5S)-5-(tert-butyl)-N-((1R,2R)-2-(difluoromethyl)-1-(((1-methylcyclopropyl)sulfonyl)carbamoyl)cyclopropyl)-4,7-dioxo-2,8-dioxa-6-aza-1(2,3)-benzo[f]quinoxalina-3(3,1)-pyrrolidina-9(3,4)-bicyclo[3.1.0]hexanacyclotetradecaphane-35-carboxamide], the EC50 in experiment [1] worked out at 5.06 nM; in experiment [2], 5.5 nM; in experiment [3], 1.7 nM; in experiment [4] it was 2.7 nM; in experiment [5], 2 nM; in experiment [6] it was 18 nM.
Consider `CC(C)(C)[C@@H]1NC(=O)O[C@@H]2C[C@@H]3C[C@@H]3[C@H]2CCCCCc2nc3ccc(C#N)cc3nc2O[C@@H]2C[C@@H](C(=O)N[C@]3(C(=O)NS(=O)(=O)C4(C)CC4)C[C@H]3C(F)F)N(C2)C1=O` [Example 23, (33R,35S,91S,93R,94R,95S,5S)-5-(tert-butyl)-17-cyano-N-((1R,2R)-2-(difluoromethyl)-1-(((1-methylcyclopropyl)sulfonyl)carbamoyl)cyclopropyl)-4,7-dioxo-2,8-dioxa-6-aza-1(2,3)-quinoxalina-3(3,1)-pyrrolidina-9(3,4)-bicyclo[3.1.0]hexanacyclotetradecaphane-35-carboxamide], for which the EC50 in experiment [1] worked out at 2.93 nM; in experiment [2] it was 9.5 nM; in experiment [3] it was 1.2 nM; in experiment [4], 2.3 nM; in experiment [5], 0.9 nM; in experiment [6], 11 nM.
As to `CC(C)(C)[C@@H]1NC(=O)O[C@@H]2C[C@@H]3C[C@@H]3[C@H]2CCCCCn2c(nc3ccccc3c2=O)O[C@@H]2C[C@@H](C(=O)N[C@]3(C(=O)NS(=O)(=O)C4(C)CC4)C[C@H]3C(F)F)N(C2)C1=O` [Example 24, (1aS,2aR,6S,9S,11R,24aR,24bS)-6-tert-butyl-N-[(1R,2R)-2-(difluoromethyl)-1-{[(1-methylcyclopropyl)sulfonyl]carbamoyl}cyclopropyl]-4,7,18-trioxo-1a,2,2a,4,5,6,7,10,11,20,21,22,23,24,24a,24b-hexadecahydro-1H,9H,18H-8,11-methanocyclopropa[4′,5′]cyclopenta[1′,2′:18,19][1,10,3,6,12]dioxatriazacyclonona decino[11,12-b]quinazoline-9-carboxamide], the EC50 in experiment [1] was 3.02 nM; in experiment [2], 7.6 nM; in experiment [3], 1.7 nM; in experiment [4], 1.5 nM; in experiment [5], 0.8 nM; in experiment [6] it was 3.3 nM.
Regarding `CC(C)(C)[C@@H]1NC(=O)O[C@@H]2C[C@@H]3C[C@@H]3[C@H]2CCCCCn2c(nc3cc(C#N)ccc3c2=O)O[C@@H]2C[C@@H](C(=O)N[C@]3(C(=O)NS(=O)(=O)C4(C)CC4)C[C@H]3C(F)F)N(C2)C1=O` [Example 25, (1aS,2aR,6S,9S,11R,24aR,24bS)-6-tert-butyl-15-cyano-N-[(1R,2R)-2-(difluoromethyl)-1-{[(1-methylcyclopropyl)sulfonyl]carbamoyl}cyclopropyl]-4,7,18-trioxo-1a,2,2a,4,5,6,7,10,11,20,21,22,23,24,24a,24b-hexadecahydro-1H,9H,18H-8,11-methanocyclopropa[4′,5′]cyclopenta[1′,2′:18,19][1,10,3,6,12]dioxatriazacyclonona decino[11,12-b]quinazoline-9-carboxamide], the EC50 is 2.72 nM in experiment [1]; 7.5 nM in experiment [2]; 1.8 nM in experiment [3]; 2 nM in experiment [4]; 0.7 nM in experiment [5]; 4.4 nM in experiment [6].

As a reminder, the EC50 is the concentration giving half of the maximal effect.
